# “And” between values parts separate entries of the source, which are not always exact repeats. Equal entries are not always repeated. Toxic doses and inconclusive results are not listed.
# System: BDF1 mice, P388 leukemia ip, median survival T/C
# Experiment: NCI In Vivo Anticancer Drug Screen. Data for tumor model P388 Leukemia (intraperitoneal) in B6D2F1 (BDF1) mice
# Conditions: endpoint: median survival time, higher = longer survival
# In short: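 Survival ratio, drug arm over vehicle arm, in mice with a transplanted tumour.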
# [1] = dose: 12.5 mg/kg/injection, schedule: Q04DX003 (ip), vehicle: saline
# [2] = dose: 25.0 mg/kg/injection, schedule: Q04DX003 (ip), vehicle: saline
# [3] = dose: 50.0 mg/kg/injection, schedule: Q04DX003 (ip), vehicle: saline
# [4] = dose: 50.0 mg/kg/injection, schedule: Q01DX009 (ip), vehicle: saline with Tween-80
# [5] = dose: 100.0 mg/kg/injection, schedule: Q01DX009 (ip), vehicle: saline with Tween-80
# [6] = dose: 200.0 mg/kg/injection, schedule: Q01DX009 (ip), vehicle: saline with Tween-80
# [7] = dose: 100.0 mg/kg/injection, schedule: Q04DX003 (ip), vehicle: saline
# [8] = dose: 200.0 mg/kg/injection, schedule: Q04DX003 (ip), vehicle: saline
# [9] = dose: 400.0 mg/kg/injection, schedule: Q04DX003 (ip), vehicle: saline
# [10] = dose: 25.0 mg/kg/injection, schedule: Q01DX009 (ip), vehicle: saline with Tween-80
# [11] = dose: 12.5 mg/kg/injection, schedule: Q01DX009 (ip), vehicle: saline
# [12] = dose: 25.0 mg/kg/injection, schedule: Q01DX009 (ip), vehicle: saline
# [13] = dose: 10.0 mg/kg/injection, schedule: Q04DX003 (ip), vehicle: saline
# [14] = dose: 100.0 mg/kg/injection, schedule: Q04DX003 (ip), vehicle: saline with Tween-80
# [15] = dose: 200.0 mg/kg/injection, schedule: Q04DX003 (ip), vehicle: saline with Tween-80
# [16] = dose: 400.0 mg/kg/injection, schedule: Q04DX003 (ip), vehicle: saline with Tween-80
# [17] = dose: 50.0 mg/kg/injection, schedule: Q04DX003 (ip), vehicle: saline with Tween-80
compound,measurement,setting,value
O=N[O-].[Co].[NH2-].[NH2-].[NH2-].[NH2-].[NH2-],T/C,[1],95 % of control
same,T/C,[2],100 % of control
same,T/C,[3],100 % of control
OC12CCCCC1Cc1cc3c(cc1O2)CC1CCCCC1(O)O3 (stereo not drawn),T/C,[4],100 % of control
same,T/C,[5],93 % of control
same,T/C,[6],96 % of control
Nc1ccn[nH]1,T/C,"dose: 100.0 mg/kg/injection, schedule: Q01DX009 (ip), vehicle: saline",100 % of control
same,T/C,[7],100 % of control
same,T/C,"dose: 200.0 mg/kg/injection, schedule: Q01DX009 (ip), vehicle: saline",100 % of control
same,T/C,[8],109 % of control
same,T/C,"dose: 400.0 mg/kg/injection, schedule: Q01DX009 (ip), vehicle: saline",118 % of control
same,T/C,[9],122 % of control
O=C(O)C1C(C(=O)O)C2(Cl)C(Cl)=C(Cl)C1(Cl)C2(Cl)Cl.[Co] (stereo not drawn),T/C,"dose: 25.0 mg/kg/injection, schedule: Q01DX009 (ip), vehicle: Klucel (hydroxypropylcellulose) (HPC)",100 % of control
same,T/C,"dose: 50.0 mg/kg/injection, schedule: Q01DX009 (ip), vehicle: Klucel (hydroxypropylcellulose) (HPC)",100 % of control
CCN(CC)c1cc(Cl)c(C=O)cc1Br,T/C,"dose: 100.0 mg/kg/injection, schedule: Q04DX003 (ip), vehicle: Klucel (hydroxypropylcellulose) (HPC)",104 % of control
same,T/C,"dose: 200.0 mg/kg/injection, schedule: Q01DX009 (ip), vehicle: Klucel (hydroxypropylcellulose) (HPC)",100 % of control
same,T/C,"dose: 200.0 mg/kg/injection, schedule: Q04DX003 (ip), vehicle: Klucel (hydroxypropylcellulose) (HPC)",95 % of control
same,T/C,"dose: 400.0 mg/kg/injection, schedule: Q01DX009 (ip), vehicle: Klucel (hydroxypropylcellulose) (HPC)",95 % of control
same,T/C,"dose: 400.0 mg/kg/injection, schedule: Q04DX003 (ip), vehicle: Klucel (hydroxypropylcellulose) (HPC)",100 % of control
CC(C)OC(=O)c1ccc(C(C)C)cc1,T/C,[5],110 % of control
same,T/C,[6],117 % of control
O=C1NNC(c2ccccc2)C1(Cl)Cl (stereo not drawn),T/C,"dose: 12.5 mg/kg/injection, schedule: Q01DX009 (ip), vehicle: saline with Tween-80",114 % of control
same,T/C,[10],99 % of control
CC12CCCCC1=Nc1ccc3ccccc3c12 (stereo not drawn),T/C,"dose: 100.0 mg/kg/injection, schedule: Q01DX009 (ip), vehicle: saline + alcohol",93 % of control
CCC(C)NCCNCCNC(C)CC (stereo not drawn),T/C,"dose: 6.25 mg/kg/injection, schedule: Q04DX003 (ip), vehicle: saline",95 % of control
same,T/C,[1],95 % of control
same,T/C,[2],104 % of control
CCCP(CCC)c1ccccc1,T/C,"dose: 25.0 mg/kg/injection, schedule: Q01DX009 (sc), vehicle: olive oil, sesame oil, peanut oil",108 % of control
same,T/C,"dose: 50.0 mg/kg/injection, schedule: Q01DX009 (sc), vehicle: olive oil, sesame oil, peanut oil",95 % of control
same,T/C,"dose: 100.0 mg/kg/injection, schedule: Q01DX009 (sc), vehicle: olive oil, sesame oil, peanut oil",95 % of control
same,T/C,"dose: 100.0 mg/kg/injection, schedule: Q04DX003 (sc), vehicle: olive oil, sesame oil, peanut oil",96 % of control
same,T/C,"dose: 200.0 mg/kg/injection, schedule: Q04DX003 (sc), vehicle: olive oil, sesame oil, peanut oil",96 % of control
same,T/C,"dose: 400.0 mg/kg/injection, schedule: Q01DX009 (sc), vehicle: olive oil, sesame oil, peanut oil",92 % of control
same,T/C,"dose: 400.0 mg/kg/injection, schedule: Q04DX003 (sc), vehicle: olive oil, sesame oil, peanut oil",123 % of control
CN1CCC(=C(C#N)C#N)CC1,T/C,[2],95 % of control
same,T/C,[3],100 % of control
same,T/C,[7],100 % of control
O=S(=O)(O)O.[O]=[V],T/C,"dose: 3.12 mg/kg/injection, schedule: Q01DX009 (ip), vehicle: saline",89 % of control
same,T/C,"dose: 6.25 mg/kg/injection, schedule: Q01DX009 (ip), vehicle: saline",92 % of control
same,T/C,"dose: 8.75 mg/kg/injection, schedule: Q01DX001 (ip), vehicle: saline",95 % of control
same,T/C,[11],100 % of control
same,T/C,[1],92 % of control and 100 % of control
same,T/C,"dose: 17.5 mg/kg/injection, schedule: Q01DX001 (ip), vehicle: saline",100 % of control
same,T/C,[12],100 % of control
same,T/C,[2],95 % of control
same,T/C,"dose: 35.0 mg/kg/injection, schedule: Q01DX001 (ip), vehicle: saline",100 % of control
same,T/C,"dose: 50.0 mg/kg/injection, schedule: Q01DX001 (ip), vehicle: saline",90 % of control
same,T/C,[3],89 % of control
O=NN(CCF)C(=O)NCCF,T/C,"dose: 0.25 mg/kg/injection, schedule: Q01DX009 (ip), vehicle: saline",120 % of control
same,T/C,"dose: 0.5 mg/kg/injection, schedule: Q04DX003 (ip), vehicle: saline",120 % of control
same,T/C,"dose: 1.0 mg/kg/injection, schedule: Q01DX009 (ip), vehicle: saline",150 % of control and 172 % of control
same,T/C,"dose: 1.0 mg/kg/injection, schedule: Q04DX003 (ip), vehicle: saline",104 % of control
same,T/C,"dose: 2.0 mg/kg/injection, schedule: Q01DX009 (ip), vehicle: saline",268 % of control
same,T/C,"dose: 2.0 mg/kg/injection, schedule: Q04DX003 (ip), vehicle: saline",175 % of control
same,T/C,"dose: 3.3 mg/kg/injection, schedule: Q04DX003 (ip), vehicle: saline",165 % of control
same,T/C,"dose: 5.0 mg/kg/injection, schedule: Q04DX003 (ip), vehicle: saline",235 % of control
same,T/C,"dose: 7.5 mg/kg/injection, schedule: Q04DX003 (ip), vehicle: saline",95 % of control
same,T/C,[13],300 % of control
same,T/C,"dose: 20.0 mg/kg/injection, schedule: Q04DX003 (ip), vehicle: saline",110 % of control
O=C1OC(=O)C2C1C1(Cl)C(Cl)=C(Cl)C2(Cl)C2C(=O)OC(=O)C21 (stereo not drawn),T/C,[7],91 % of control
same,T/C,[8],108 % of control
same,T/C,[9],104 % of control
COc1ccc(C2=NNc3n[nH]c(=S)n3N2)cc1OC,T/C,[14],100 % of control
same,T/C,[15],100 % of control
same,T/C,[16],91 % of control
CC(Cc1ccccc1)C(N)=O (stereo not drawn),T/C,[17],105 % of control
same,T/C,[14],98 % of control
same,T/C,[15],113 % of control
Nc1cc(=O)[nH][nH]1,T/C,[5],104 % of control
same,T/C,[6],109 % of control
same,T/C,"dose: 400.0 mg/kg/injection, schedule: Q01DX009 (ip), vehicle: saline with Tween-80",122 % of control
CC1(C)N=C(N)N=C(N)N1c1ccc(CNC(=O)Nc2ccc(S(=O)(=O)F)cc2)c(Cl)c1,T/C,"dose: 16.5 mg/kg/injection, schedule: Q01DX009 (ip), vehicle: saline with Tween-80",176 % of control
same,T/C,[10],188 % of control
same,T/C,"dose: 37.5 mg/kg/injection, schedule: Q01DX009 (ip), vehicle: saline with Tween-80",185 % of control
same,T/C,"dose: 88.0 mg/kg/injection, schedule: Q04DX003 (ip), vehicle: saline with Tween-80",186 % of control
same,T/C,"dose: 132.0 mg/kg/injection, schedule: Q04DX003 (ip), vehicle: saline with Tween-80",157 % of control
O=Cc1ccc(C(Cl)(Cl)Cl)cc1,T/C,[4],92 % of control
same,T/C,[6],122 % of control
same,T/C,[16],163 % of control
COC(CN(C)C(=O)NC1CCCCC1)OC,T/C,[17],95 % of control
same,T/C,[14],100 % of control
same,T/C,[15],100 % of control
CC(=O)OCC1OC(OC2=C(CC=C(Cl)Cl)C(=O)c3ccccc3C2=O)C(OC(C)=O)C(OC(C)=O)C1OC(C)=O (stereo not drawn),T/C,[10],100 % of control
same,T/C,[4],100 % of control and 104 % of control
same,T/C,[5],100 % of control and 102 % of control
same,T/C,[6],117 % of control
CN(C)c1ccc2nc3ccc(=[N+](C)C)cc-3sc2c1,T/C,"dose: 2.5 mg/kg/injection, schedule: Q01DX009 (ip), vehicle: saline",113 % of control
same,T/C,"dose: 5.0 mg/kg/injection, schedule: Q01DX009 (ip), vehicle: saline",104 % of control
same,T/C,"dose: 7.2 mg/kg/injection, schedule: Q04DX003 (ip), vehicle: saline",110 % of control
same,T/C,"dose: 10.0 mg/kg/injection, schedule: Q01DX009 (ip), vehicle: saline",122 % of control
same,T/C,[13],110 % of control
same,T/C,"dose: 11.5 mg/kg/injection, schedule: Q04DX003 (ip), vehicle: saline",100 % of control
same,T/C,[11],100 % of control
same,T/C,"dose: 16.5 mg/kg/injection, schedule: Q01DX009 (ip), vehicle: saline",95 % of control and 100 % of control
same,T/C,"dose: 20.0 mg/kg/injection, schedule: Q01DX009 (ip), vehicle: saline",104 % of control
same,T/C,[12],100 % of control and 104 % of control
same,T/C,"dose: 37.5 mg/kg/injection, schedule: Q01DX009 (ip), vehicle: saline",95 % of control
same,T/C,"dose: 37.5 mg/kg/injection, schedule: Q04DX003 (ip), vehicle: saline",100 % of control

# Reference: PubChem BioAssay AID328 (DTP/NCI, 2004)
